Assay results published in ChEMBL document CHEMBL3632477 (2015).
Where a SMILES comes first, the peptide text is derived from it. Bridges are numbered along the chain shown (N, C = ends). [ ]: non-standard residue; d: D form. ξ: configuration not given here. Bip(2'-Et-4'-OMe) = CCc1cc(OC)ccc1-c1ccc(C[C@H](N)C(=O)O)cc1; αMePhe(2,6-F2) = C[C@](N)(Cc1c(F)cccc1F)C(=O)O; Bip = N[C@@H](Cc1ccc(-c2ccccc2)cc1)C(=O)O; αMePhe(2-F) = C[C@](N)(Cc1ccccc1F)C(=O)O; ξαMePhe(2-F) = CC(N)(Cc1ccccc1F)C(=O)O; hhPhe = N[C@@H](CCCc1ccccc1)C(=O)O; αMeF = C[C@](N)(Cc1ccccc1)C(=O)O; Aib = CC(C)(N)C(=O)O

molecular target: Glucagon-like peptide 1 receptor (Homo sapiens, UniProt P43220); assay: Agonist activity at human GLP-1R expressed in CHO-K1 cells assessed as increase in cAMP level incubated for 30 mins; format: functional, cell-based
Sequence (P43220 whole entry): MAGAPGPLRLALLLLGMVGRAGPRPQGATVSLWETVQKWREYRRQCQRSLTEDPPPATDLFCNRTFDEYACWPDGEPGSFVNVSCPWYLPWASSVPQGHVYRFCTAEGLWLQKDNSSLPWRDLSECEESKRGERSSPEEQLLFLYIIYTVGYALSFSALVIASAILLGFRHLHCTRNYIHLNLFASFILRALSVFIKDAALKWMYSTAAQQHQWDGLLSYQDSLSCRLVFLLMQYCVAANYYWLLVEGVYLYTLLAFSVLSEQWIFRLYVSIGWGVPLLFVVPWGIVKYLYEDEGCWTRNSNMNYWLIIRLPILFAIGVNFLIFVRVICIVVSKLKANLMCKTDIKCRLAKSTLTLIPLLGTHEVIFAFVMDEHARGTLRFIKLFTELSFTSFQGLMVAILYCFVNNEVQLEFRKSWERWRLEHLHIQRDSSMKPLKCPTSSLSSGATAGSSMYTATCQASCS

Point of comparison: `CCc1cc(OC)ccc1-c1ccc(C[C@H](NC(=O)[C@H](CC(=O)O)NC(=O)[C@H](CS)NC(=O)[C@@H](NC(=O)[C@](C)(Cc2ccccc2F)NC(=O)[C@@H](NC(=O)CNC(=O)[C@H](CCC(=O)O)NC(=O)C(C)(C)NC(=O)[C@@H](N)Cc2cnc[nH]2)[C@@H](C)O)[C@@H](C)O)C(=O)N[C@@H](CCCc2ccccc2)C(=O)N[C@H](CS)C(N)=O)cc1`, EC50 1150 nM. Against it:
- CCc1cc(OC)ccc1-c1ccc(C[C@@H]2NC(=O)[C@H](CC(=O)O)NC(=O)[C@H](CO)NC(=O)[C@@H]3CSSC[C@@H](C(=O)O)NC(=O)[C@H](CSSC[C@H](NC(=O)CNC(=O)[C@H](CCC(=O)O)NC(=O)C(C)(C)NC(=O)[C@@H](N)Cc4cnc[nH]4)C(=O)NC(C)(Cc4ccccc4F)C(=O)N3)NC(=O)[C@H](CC(C)C)NC(=O)[C@H](CCCc3ccccc3)NC2=O)cc1 (some centres not stated) (H-H[Aib]EGC[ξαMePhe(2-F)]CSD[Bip(2'-Et-4'-OMe)][hhPhe]LCC-OH; disulfide 5-13, 7-14) — 4.3-fold higher, 5000 nM
- CCc1cc(OC)ccc1-c1ccc(C[C@@H]2NC(=O)[C@H](CC(=O)O)NC(=O)[C@H](CO)NC(=O)[C@H]([C@@H](C)O)NC(=O)[C@](C)(Cc3ccccc3)NC(=O)[C@H]([C@@H](C)O)NC(=O)CNC(=O)[C@H](CCC(=O)O)NC(=O)[C@@H]3CCCN3C(=O)[C@H](Cc3cnc[nH]3)NC(=O)[C@H](CO)NC(=O)[C@@H]3CSSC[C@H](NC(=O)[C@H](CCCc4ccccc4)NC2=O)C(=O)NCC(=O)N[C@@H](Cc2ccc(-c4ccccc4)cc2)C(=O)N[C@@H](C)C(=O)N[C@@H](C)C(=O)NCC(=O)NCC(=O)NCC(=O)N[C@@H](C)C(=O)N3)cc1 (cyclo(AAGGGACSHPEGT[αMeF]TSD[Bip(2'-Et-4'-OMe)][hhPhe]CG[Bip]); disulfide 7-20) — 3.2-fold lower, 360 nM
- CCc1cc(OC)ccc1-c1ccc(C[C@@H]2NC(=O)[C@H](CC(=O)O)NC(=O)[C@H](CO)NC(=O)[C@H]([C@@H](C)O)NC(=O)[C@](C)(Cc3c(F)cccc3F)NC(=O)[C@H]([C@@H](C)O)NC(=O)CNC(=O)[C@H](CCC(=O)O)NC(=O)[C@@H]3CCCN3C(=O)[C@H](Cc3cnc[nH]3)NC(=O)[C@H](CO)NC(=O)[C@@H]3CSSC[C@H](NC(=O)[C@H](CCCc4ccccc4)NC2=O)C(=O)NCC(=O)N[C@@H](Cc2ccc(-c4ccccc4)cc2)C(=O)N[C@@H](C)C(=O)N[C@@H](C)C(=O)NCC(=O)NCC(=O)NCC(=O)N[C@@H](C)C(=O)N3)cc1 (cyclo(AAGGGACSHPEGT[αMePhe(2,6-F2)]TSD[Bip(2'-Et-4'-OMe)][hhPhe]CG[Bip]); disulfide 7-20) — 2.4-fold lower, 470 nM
- CCc1cc(OC)ccc1-c1ccc(C[C@@H]2NC(=O)[C@H](CC(=O)O)NC(=O)[C@H](CO)NC(=O)[C@H]([C@@H](C)O)NC(=O)[C@](C)(Cc3c(F)cccc3F)NC(=O)[C@H]([C@@H](C)O)NC(=O)CNC(=O)[C@H](CCC(=O)O)NC(=O)[C@@H]3CCCN3C(=O)[C@H](Cc3cnc[nH]3)NC(=O)[C@H](CO)NC(=O)[C@@H]3CSSC[C@H](NC(=O)[C@H](CCCc4ccccc4)NC2=O)C(=O)NCC(=O)NCC(=O)N[C@@H](C(C)C)C(=O)N[C@@H](C(C)C)C(=O)N[C@@H](C(C)C)C(=O)NCC(=O)N[C@@H](C(C)C)C(=O)N[C@@H](C(C)C)C(=O)N3)cc1 (cyclo(CGGVVVGVVCSHPEGT[αMePhe(2,6-F2)]TSD[Bip(2'-Et-4'-OMe)][hhPhe]); disulfide 1-10) — within 1.5-fold, 1000 nM
- CCc1cc(OC)ccc1-c1ccc(C[C@H](NC(=O)[C@H](CC(=O)O)NC(=O)[C@H](CO)NC(=O)[C@@H](NC(=O)[C@](C)(Cc2c(F)cccc2F)NC(=O)[C@@H](NC(=O)CNC(=O)[C@H](CCC(=O)O)NC(=O)[C@@H]2CCCN2C(=O)[C@@H](N)Cc2cnc[nH]2)[C@@H](C)O)[C@@H](C)O)C(=O)N[C@@H](CCCc2ccccc2)C(=O)N[C@H]2CSSC[C@@H](C(=O)N[C@@H](CO)C(N)=O)NC(=O)[C@H](C)NC(=O)CNC(=O)CNC(=O)CNC(=O)[C@H](C)NC(=O)[C@H](C)NC(=O)CNC(=O)CNC2=O)cc1 (H-HPEGT[αMePhe(2,6-F2)]TSD[Bip(2'-Et-4'-OMe)][hhPhe]CGGAAGGGACS-NH2; disulfide 12-21) — 88-fold lower, 13 nM
- CCc1cc(OC)ccc1-c1ccc(C[C@H](NC(=O)[C@H](CC(=O)O)NC(=O)[C@H](CO)NC(=O)[C@@H](NC(=O)[C@](C)(Cc2ccccc2F)NC(=O)[C@@H](NC(=O)CNC(=O)[C@H](CCC(=O)O)NC(=O)[C@@H]2CCCN2C(=O)[C@@H](N)Cc2cnc[nH]2)[C@@H](C)O)[C@@H](C)O)C(=O)N[C@@H](CCCc2ccccc2)C(=O)N[C@H]2CSSC[C@@H](C(=O)N[C@@H](CO)C(=O)O)NC(=O)[C@H](C)NC(=O)CNC(=O)CNC(=O)CNC(=O)[C@H](C)NC(=O)[C@H](C)NC(=O)CNC(=O)CNC2=O)cc1 (H-HPEGT[αMePhe(2-F)]TSD[Bip(2'-Et-4'-OMe)][hhPhe]CGGAAGGGACS-OH; disulfide 12-21) — 1200-fold lower, 1 nM
- CCc1cc(OC)ccc1-c1ccc(C[C@@H]2NC(=O)[C@H](CC(=O)O)NC(=O)[C@H](CO)NC(=O)[C@H]([C@@H](C)O)NC(=O)[C@](C)(Cc3ccccc3)NC(=O)[C@H]([C@@H](C)O)NC(=O)CNC(=O)[C@H](CCC(=O)O)NC(=O)[C@@H]3CCCN3C(=O)[C@H](Cc3cnc[nH]3)NC(=O)[C@H](CO)NC(=O)[C@@H]3CSSC[C@H](NC(=O)[C@H](CCCc4ccccc4)NC2=O)C(=O)NCC(=O)NCC(=O)N[C@@H](C)C(=O)N[C@@H](C)C(=O)NCC(=O)NCC(=O)NCC(=O)N[C@@H](C)C(=O)N3)cc1 (cyclo(AAGGGACSHPEGT[αMeF]TSD[Bip(2'-Et-4'-OMe)][hhPhe]CGG); disulfide 7-20) — 1.7-fold higher, 2000 nM
- CCc1cc(OC)ccc1-c1ccc(C[C@H](NC(=O)[C@H](CC(=O)O)NC(=O)[C@H](CO)NC(=O)[C@@H](NC(=O)[C@](C)(Cc2c(F)cccc2F)NC(=O)[C@@H](NC(=O)CNC(=O)[C@H](CCC(=O)O)NC(=O)[C@@H]2CCCN2C(=O)[C@@H](N)Cc2cnc[nH]2)[C@@H](C)O)[C@@H](C)O)C(=O)N[C@@H](CCCc2ccccc2)C(=O)N[C@H]2CSSC[C@@H](C(=O)N[C@@H](CO)C(=O)O)NC(=O)[C@H](C)NC(=O)CNC(=O)CNC(=O)CNC(=O)[C@H](C)NC(=O)[C@H](C)NC(=O)CNC(=O)CNC2=O)cc1 (H-HPEGT[αMePhe(2,6-F2)]TSD[Bip(2'-Et-4'-OMe)][hhPhe]CGGAAGGGACS-OH; disulfide 12-21) — 1400-fold lower, 0.85 nM
- CCc1cc(OC)ccc1-c1ccc(C[C@H](NC(=O)[C@H](CC(=O)O)NC(=O)[C@H](CO)NC(=O)[C@@H](NC(=O)[C@](C)(Cc2ccccc2)NC(=O)[C@@H](NC(=O)CNC(=O)[C@H](CCC(=O)O)NC(=O)[C@@H]2CCCN2C(=O)[C@@H](N)Cc2cnc[nH]2)[C@@H](C)O)[C@@H](C)O)C(=O)N[C@@H](CCCc2ccccc2)C(=O)N[C@H]2CSSC[C@@H](C(=O)N[C@@H](CO)C(=O)O)NC(=O)[C@H](C)NC(=O)CNC(=O)CNC(=O)CNC(=O)[C@H](C)NC(=O)[C@H](C)NC(=O)[C@H](Cc3ccc(-c4ccccc4)cc3)NC(=O)CNC2=O)cc1 (H-HPEGT[αMeF]TSD[Bip(2'-Et-4'-OMe)][hhPhe]CG[Bip]AAGGGACS-OH; disulfide 12-21) — 24-fold lower, 47 nM
- CCc1cc(OC)ccc1-c1ccc(C[C@@H]2NC(=O)[C@H](CC(=O)O)NC(=O)[C@H](CO)NC(=O)[C@@H]3CSSC[C@@H](C(=O)O)NC(=O)[C@H](CSSC[C@H](NC(=O)CNC(=O)[C@H](CCC(=O)O)NC(=O)C(C)(C)NC(=O)[C@H](Cc4cnc[nH]4)NC(C)=O)C(=O)N[C@@](C)(Cc4c(F)cccc4F)C(=O)N3)NC(=O)[C@H](CC(C)C)NC(=O)[C@H](CCCc3ccccc3)NC2=O)cc1 (Ac-H[Aib]EGC[αMePhe(2,6-F2)]CSD[Bip(2'-Et-4'-OMe)][hhPhe]LCC-OH; disulfide 5-13, 7-14) — 17-fold lower, 69 nM
- CCc1cc(OC)ccc1-c1ccc(C[C@H](NC(=O)[C@H](CC(=O)O)NC(=O)[C@H](CO)NC(=O)[C@@H](NC(=O)[C@](C)(Cc2c(F)cccc2F)NC(=O)[C@@H](NC(=O)CNC(=O)[C@H](CCC(=O)O)NC(=O)[C@@H]2CCCN2C(=O)[C@@H](N)Cc2cnc[nH]2)[C@@H](C)O)[C@@H](C)O)C(=O)N[C@@H](CCCc2ccccc2)C(=O)N[C@H]2CSSC[C@@H](C(=O)N[C@@H](CO)C(=O)O)NC(=O)[C@H](C(C)C)NC(=O)[C@H](C(C)C)NC(=O)CNC(=O)[C@H](C(C)C)NC(=O)[C@H](C(C)C)NC(=O)[C@H](C(C)C)NC(=O)CNC(=O)CNC2=O)cc1 (H-HPEGT[αMePhe(2,6-F2)]TSD[Bip(2'-Et-4'-OMe)][hhPhe]CGGVVVGVVCS-OH; disulfide 12-21) — 61-fold lower, 19 nM
